{"source": "patent US7514422B2", "about": "“5HT2c receptor modulators” (Arena Pharmaceuticals, Inc., priority 2002, dated 2009)"}
{"biological_target": "T1, human 5-HT2c receptor (Homo sapiens, UniProt P28335)", "T1 construct": "expressed in transfected cells; host or cells: HEK293", "T1 sequence (P28335 33-458)": "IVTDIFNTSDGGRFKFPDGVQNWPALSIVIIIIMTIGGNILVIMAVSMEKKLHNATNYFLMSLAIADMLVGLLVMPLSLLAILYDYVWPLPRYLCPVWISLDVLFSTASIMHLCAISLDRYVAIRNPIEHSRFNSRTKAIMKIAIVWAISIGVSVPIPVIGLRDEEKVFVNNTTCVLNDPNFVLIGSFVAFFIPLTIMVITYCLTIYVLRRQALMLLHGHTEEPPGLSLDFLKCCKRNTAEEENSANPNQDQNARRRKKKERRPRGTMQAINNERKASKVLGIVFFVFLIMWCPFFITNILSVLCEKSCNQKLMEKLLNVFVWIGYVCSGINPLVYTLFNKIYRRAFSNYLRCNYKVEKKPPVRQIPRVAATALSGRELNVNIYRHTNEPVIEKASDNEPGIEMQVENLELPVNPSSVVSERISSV", "test": "Intracellular IP3 Accumulation Assay", "type": "cell-based", "details": "HEK293 cells transfected with human 5-HT2c receptor; averages of at least two trials; read-out: 5-HT2C (IC50) IP Accumulation Assay", "method": "HEK293 cells were transfected in 15 cm sterile dishes with or without (control) 16 ug of human 5-HT2c receptor cDNA using 25 ul of lipofectamine. Cells were then incubated for 34 hours at 37° C/5% CO2 and then transfection media was removed and replaced with 100 ul of DMEM. Cells were then plated onto […] sterile dishes. The next day cells were plated into 96 well PDL microtiter plates at a density of 55K/0.2 ml. Six hours latter, media was exchanged with [^3H]inositol (0.25 uCi/well) in inositol free DMEM and plates were incubated at 37° C./5% CO2 overnight. The next day, wells were aspirated and 200 ul of DMEM containing test compound, 10 uM pargyline, and 10 mM LiCl was added to appropriate wells. Plates were then incubated at 37° C./5% CO2 for three hours followed aspiration and by addition of fresh ice cold stop solution (1M KOH, 19 mM Na-borate, 3.8 mM EDTA) to each well. Plates were kept on ice for 5-10 min and the wells were neutralized by addition of 200 ul of fresh ice cold neutralization solution (7.5% HCl). Plates were then frozen until further processing is desired. The lysate was then transferred into 1.5 ml Eppendorf tubes and 1 ml of chloroform/methanol (1:2) was added/tube. The solution was vortexed for 15 seconds and the upper phase was applied to a Biorad AG1-X8™ anion exchange resin (100-200 mesh). First, the resin was washed with water at 1:1.25 W/V and 0.9 ml of upper phase was loaded onto the column. The column was then washed with 10 ml of 5 mM myo-inositol and 10 ml of 5 mM Na-borate/60 mM Na-formate. The inositol tris phosphates were eluted into scintillation vials containing 10 ml of scintillation cocktail with 2 ml of 0.1 M formic acid/1 M ammonium formate. The columns were regenerated by washing with 10 ml of 0.1 M formic acid/3M ammonium formate and rinsed twice with dd H2O and stored at 4° C. in water.", "units": {"IC50": "nM"}}
{"smiles": "COc1cc2c(cc1Br)C(C)CNCC2", "note": "(racemic) [Example 1, (R,S) 8-Bromo-7-methoxy-1-methyl-2,3,4,5-tetrahydro-1H-3-benzazepine]", "IC50": 4.2}
{"smiles": "COc1cc2c(cc1Cl)C(C)CNCC2", "note": "(racemic) [Example 2, (R,S) 8-Chloro-7-methoxy-1-methyl-2,3,4,5-tetrahydro-1H-3-benzazepine]", "IC50": 4.5}
{"smiles": "COc1cc2c(cc1I)C(C)CNCC2", "note": "(racemic) [Example 3, (R,S) 8-Iodo-7-methoxy-1-methyl-2,3,4,5taetrhydro-1H-3-benzazepine]", "IC50": 1.4}
{"smiles": "CC1CNCCc2cc(O)c(Br)cc21", "note": "(racemic) [Example 4, (R,S) 8-Bromo-7-hydroxy-1-methyl-2,3,4,5tetrahydro-1H-3-benzazepine]", "IC50": 2.1}
{"smiles": "C=CCOc1cc2c(cc1Br)C(C)CNCC2", "note": "(racemic) [Example 5, (R,S) 7-Allyloxy-8-bromo-1-methyl-2,3,4,5tetrahydro-1H-3-benzazepine]", "IC50": 12.1}
{"smiles": "C=CCOc1cc2c(cc1I)C(C)CNCC2", "note": "(racemic) [Example 12, (R,S) 7-Allyloxy-8-iodo-1-methyl-2,3,4,5-tetrahydro-1H-3-benzazepine]", "IC50": 6.3}
{"smiles": "CCC1CNCCc2cc(OC)c(Br)cc21", "note": "(racemic) [Example 19, (R,S) 8-Bromo-1-ethyl-7-methoxy-2,3,4,5-tetrahydro-1H-3-benzazepine]", "IC50": 18}
{"smiles": "CC1CNCCc2ccc(Br)cc21", "note": "(racemic) [Example 32, (R,S) 8-Bromo-1-methyl-2,3,4,5tetrahydro-1H-3-benzazepine]", "IC50": 2.1}
